In patent US11767322B2 (BRISTOL-MYERS SQUIBB COMPANY, priority 2020, dated 2023) one finds IC50 data, which are given here for 14 compounds.

Assay [1] addresses T1, His-GST-TVMV-hRIPK1(1-324) (Homo sapiens, UniProt Q13546).
T1 construct: The coding region of human RIPK1(1-324) flanked by NdeI site at 5′ end; made in house; host or cells: Spodoptera frugiperda Sf9 insect cells (baculovirus, Bac-to-Bac)
T1 sequence (Q13546 1-324): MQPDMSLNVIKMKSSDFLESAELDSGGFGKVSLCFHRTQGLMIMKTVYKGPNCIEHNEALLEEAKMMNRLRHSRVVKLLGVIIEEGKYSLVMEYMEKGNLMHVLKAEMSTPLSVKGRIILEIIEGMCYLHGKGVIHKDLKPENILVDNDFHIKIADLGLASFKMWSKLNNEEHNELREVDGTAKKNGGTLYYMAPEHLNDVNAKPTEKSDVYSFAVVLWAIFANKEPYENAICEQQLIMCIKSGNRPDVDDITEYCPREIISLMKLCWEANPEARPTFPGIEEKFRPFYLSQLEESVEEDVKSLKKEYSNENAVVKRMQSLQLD
Put plainly: biochemical. The assay is classed as binding.

The subject of assay [2] is MLKL phosphorylation in HT29-L23 human colorectal adenocarcinoma cells. As to the kind of experiment: MLKL phosphorylation high-content assay. The assay is classed as cell-based. To be noted: 6 h, necroptosis induced with TNFα, SMAC mimetic and Z-VAD, 6 h, maximal inhibition defined by Nec1s.
Assay [3] has as its target GST-tagged PIK3Cδ in complex with PIK3R1 (Homo sapiens, UniProt O00329). Put plainly: PI3Kδ HTRF binding assay. To be noted: HTRF probe displacement, 1 h at rt; read-out: PIK3CD IC50. Background: TR-FRET usually uses a lanthanide donor and a delayed reading to cut background.
Where [4] appears, read: HTRF probe displacement, 1 h at rt, read-out: RIPK1 IC50.
[5] abbreviates: Homo sapiens, read-out: pMLKL IC50, HT29-L23 cells.
[6] abbreviates: read-out: pMLKL IC50, HT29-L23 cells.

Read-outs that look alike come from different tables or passages of the source.

Sequence of GST-tagged PIK3Cδ in complex with PIK3R1 (O00329 whole entry): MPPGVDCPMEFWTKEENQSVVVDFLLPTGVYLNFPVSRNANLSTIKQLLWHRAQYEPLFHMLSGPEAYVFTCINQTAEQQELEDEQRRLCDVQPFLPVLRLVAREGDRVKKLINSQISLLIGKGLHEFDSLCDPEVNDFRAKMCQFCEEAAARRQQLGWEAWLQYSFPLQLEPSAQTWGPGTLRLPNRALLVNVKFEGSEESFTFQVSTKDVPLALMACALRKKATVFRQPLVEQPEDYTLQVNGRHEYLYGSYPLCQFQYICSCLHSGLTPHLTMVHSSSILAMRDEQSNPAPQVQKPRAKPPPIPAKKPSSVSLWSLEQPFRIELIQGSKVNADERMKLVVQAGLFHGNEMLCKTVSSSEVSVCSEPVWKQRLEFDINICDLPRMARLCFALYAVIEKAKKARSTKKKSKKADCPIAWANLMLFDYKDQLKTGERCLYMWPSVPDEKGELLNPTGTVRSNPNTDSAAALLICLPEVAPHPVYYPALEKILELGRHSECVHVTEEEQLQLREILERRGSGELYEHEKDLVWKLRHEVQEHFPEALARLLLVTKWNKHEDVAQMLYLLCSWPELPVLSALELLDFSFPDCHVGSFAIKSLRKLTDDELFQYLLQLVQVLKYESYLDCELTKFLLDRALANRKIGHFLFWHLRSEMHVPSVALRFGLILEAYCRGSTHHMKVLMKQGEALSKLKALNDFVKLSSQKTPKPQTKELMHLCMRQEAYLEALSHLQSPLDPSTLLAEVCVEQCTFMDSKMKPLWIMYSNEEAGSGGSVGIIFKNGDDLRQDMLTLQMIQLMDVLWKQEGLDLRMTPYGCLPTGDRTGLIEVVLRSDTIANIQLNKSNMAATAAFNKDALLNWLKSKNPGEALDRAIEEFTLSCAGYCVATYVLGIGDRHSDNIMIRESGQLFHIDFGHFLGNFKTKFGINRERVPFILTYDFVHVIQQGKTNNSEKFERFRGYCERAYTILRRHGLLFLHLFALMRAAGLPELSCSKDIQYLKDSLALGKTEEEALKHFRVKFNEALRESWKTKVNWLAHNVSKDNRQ
Sequence of GST-tagged PIK3Cδ in complex with PIK3R1 (P27986 whole entry partner): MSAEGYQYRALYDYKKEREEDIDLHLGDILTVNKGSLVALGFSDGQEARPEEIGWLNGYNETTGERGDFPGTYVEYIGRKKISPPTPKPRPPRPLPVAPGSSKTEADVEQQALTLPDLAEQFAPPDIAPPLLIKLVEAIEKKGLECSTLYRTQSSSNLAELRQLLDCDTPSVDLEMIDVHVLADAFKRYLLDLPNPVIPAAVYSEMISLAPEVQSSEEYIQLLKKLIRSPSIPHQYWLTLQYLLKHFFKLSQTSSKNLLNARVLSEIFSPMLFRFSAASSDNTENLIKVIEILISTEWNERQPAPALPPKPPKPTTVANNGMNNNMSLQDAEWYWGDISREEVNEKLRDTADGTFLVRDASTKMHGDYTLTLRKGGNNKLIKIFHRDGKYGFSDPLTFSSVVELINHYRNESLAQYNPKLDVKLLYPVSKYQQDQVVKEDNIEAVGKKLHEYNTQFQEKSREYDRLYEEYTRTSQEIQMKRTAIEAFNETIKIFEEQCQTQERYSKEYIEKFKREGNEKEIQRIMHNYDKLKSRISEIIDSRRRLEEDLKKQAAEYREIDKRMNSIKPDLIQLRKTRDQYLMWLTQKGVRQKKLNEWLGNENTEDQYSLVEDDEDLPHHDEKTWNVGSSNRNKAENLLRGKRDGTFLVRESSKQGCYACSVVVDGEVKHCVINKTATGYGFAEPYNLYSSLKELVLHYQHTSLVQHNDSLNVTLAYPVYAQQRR

On to `Nc1nc2cc(-c3ccc(Cl)c(C(=O)NCC[C@H](O)c4ccc(Cl)cc4)c3F)ccn2n1` [Example 153, (S)-3-(2-amino-[1,2,4]triazolo[1,5-a]pyridin-7-yl)-6-chloro-N-(3-(4-chlorophenyl)-3-hydroxypropyl)-2-fluorobenzamide], for which the IC50 – broadly, the midpoint of a concentration-inhibition curve – in assay [1] (setting [4]) is 4.1 nM; in assay [2] (setting [5]), 8.3 nM; in assay [3], greater than 15 µM.

In the case of `Cc1ccc(-c2ccn3nc(N)nc3c2)c(F)c1C(=O)NC(C)CC(O)c1ccc(F)cc1` (single isomer, unassigned) [Example 37, 3-(2-amino-[1,2,4]triazolo[1,5-a]pyridin-7-yl)-2-fluoro-N-(4-(4-fluorophenyl)-4-hydroxybutan-2-yl)-6-methylbenzamide], the IC50 in assay [1] (setting [4]) was 21 nM; in assay [2] (setting [6]) it was 41 nM; in assay [3], greater than 15 µM.

Consider `Cc1ccc(-c2ccn3nc(N)nc3c2)c(Cl)c1C(=O)NCC[C@H](O)c1ccc(Cl)cc1` [Example 145, (S)-3-(2-amino-[1,2,4]triazolo[1,5-a]pyridin-7-yl)-2-chloro-N-(3-(4-chlorophenyl)-3-hydroxypropyl)-6-methylbenzamide], for which the IC50 in assay [1] (setting [4]) was 21 nM; in assay [2] (setting [5]) it was 35 nM; in assay [3], greater than 15 µM.

For `Nc1nc2cc(-c3ccc(Cl)c(C(=O)NCC[C@@H](O)c4ccc(Cl)cc4)c3F)ccn2n1` [Example 154, (R)-3-(2-amino-[1,2,4]triazolo[1,5-a]pyridin-7-yl)-6-chloro-N-(3-(4-chlorophenyl)-3-hydroxypropyl)-2-fluorobenzamide], the IC50 in assay [1] (setting [4]) is 4.7 nM; in assay [2] (setting [5]), 1.4 nM; in assay [3], greater than 15 µM.

With `COc1c(-c2ccc(C)c(C(=O)NCC(F)(F)C(O)c3ccc(F)cc3)c2F)ccn2nc(N)nc12` (single isomer, unassigned; enantiomer 1) [Example 135], the IC50 was 5.6 nM in assay [1] (RIPK1 IC50); 0.5 nM in assay [2] (HT29-L23 cells, read-out: pMLKL IC50); greater than 15 µM in assay [3].

As to `Cc1ccc(-c2ccn3nc(N)nc3c2)c(F)c1C(=O)NCCC(O)c1ccc(Cl)c(Cl)c1` (single isomer, unassigned) [Example 34, 3-(2-amino-[1,2,4]triazolo[1,5-a]pyridin-7-yl)-N-(3-(3,4-dichlorophenyl)-3-hydroxypropyl)-2-fluoro-6-methylbenzamide], the IC50 in assay [1] (setting [4]) was 0.8 nM; in assay [2] (setting [6]) it was 1 nM; in assay [3], greater than 15 µM.

As to `Nc1nc2cc(-c3ccc(Cl)c(C(=O)NCCC(O)c4ccc(Cl)cn4)c3F)ccn2n1` (single isomer, unassigned) [Example 83, 3-(2-amino-[1,2,4]triazolo[1,5-a]pyridin-7-yl)-6-chloro-N-(3-(5-chloropyridin-2-yl)-3-hydroxypropyl)-2-fluorobenzamide], the 50% inhibitory concentration (IC50) in assay [1] (setting [4]) turned out to be 29 nM; in assay [2] (setting [6]) it was 17 nM; in assay [3], 11 µM.

As to `Nc1nc2cc(-c3ccc(Cl)c(C(=O)NC[C@@H](F)[C@@H](O)c4ccc(F)cc4)c3F)ccn2n1` (single isomer, unassigned) [Example 298], the values for the IC50 in assay [1] (setting [4]), in assay [2] (setting [5]) and in assay [3] were 2.9 nM, 0.5 nM and 8 µM, respectively.

For `COc1ccc(-c2ccn3nc(N)nc3c2)c(F)c1C(=O)NCC(F)(F)C(O)c1ccc(Cl)c(Cl)c1` (stereo not drawn) [Example 267, 3-{2-amino-[1,2,4]triazolo[1,5-a]pyridin-7-yl}-N-[3-(3,4-dichlorophenyl)-2,2-difluoro-3-hydroxypropyl]-2-fluoro-6-methoxybenzamide], the results for the IC50 in assay [1] (setting [4]), in assay [2] (setting [6]) and in assay [3] were 2.8 nM, 1 nM and greater than 15 µM, respectively.

For the compound `Nc1nc2cc(-c3ccc(Cl)c(C(=O)NCC(F)(F)C(O)c4ccc(Cl)c(Cl)c4)c3F)ccn2n1` (single isomer, unassigned) [Example 264, 3-{2-amino-[1,2,4]triazolo[1,5-a]pyridin-7-yl}-6-chloro-N-[3-(3,4-dichlorophenyl)-2,2-difluoro-3-hydroxypropyl]-2-fluorobenzamide], the IC50 in assay [1] (setting [4]) was 6.2 nM; in assay [2] (setting [6]), 1 nM; in assay [3] it was greater than 15 µM.

`Nc1nc2cc(-c3ccc(Cl)c(C(=O)NCC(F)(F)C(=O)c4ccc(F)cc4)c3F)ccn2n1` [Example 280, 3-(2-amino-[1,2,4]triazolo[1,5-a]pyridin-7-yl)-6-chloro-N-(2,2-difluoro-3-(4-fluorophenyl)-3-oxopropyl)-2-fluorobenzamide]: the IC50 in assay [1] (setting [4]) stood at 15 nM; in assay [2] (setting [5]), 1.4 nM; in assay [3], 11 µM.

On to `Nc1nc2cc(-c3ccc(Cl)c(C(=O)NCC(F)(F)C(O)c4ccc(OC(F)F)cc4)c3F)ccn2n1` (stereo not drawn) [Example 187, 3-(2-amino-[1,2,4]triazolo[1,5-a]pyridin-7-yl)-6-chloro-N-(3-(4-(difluoromethoxy)phenyl)-2,2-difluoro-3-hydroxypropyl)-2-fluorobenzamide], for which the IC50 is 3.2 nM in assay [1] (setting [4]), 1.7 nM in assay [2] (setting [6]) and greater than 15 µM in assay [3].

For `Nc1nc2cc(-c3ccc(C(F)F)c(C(=O)NCC(F)(F)[C@@H](O)c4ccc(F)cc4)c3F)ccn2n1` [Example 295, (S)-3-(2-amino-[1,2,4]triazolo[1,5-a]pyridin-7-yl)-N-(2,2-difluoro-3-(4-fluorophenyl)-3-hydroxypropyl)-6-(difluoromethyl)-2-fluorobenzamide], the results for the IC50 in assay [1] (setting [4]), in assay [2] (setting [5]) and in assay [3] were 3.3 nM, 1.4 nM and greater than 15 µM, respectively.

On to `COc1ccc(-c2ccn3nc(N)nc3c2)c(F)c1C(=O)NCC(F)(F)C(O)c1ccc(Cl)c(Cl)c1` (stereo not drawn) [Example 268, 3-{2-amino-[1,2,4]triazolo[1,5-a]pyridin-7-yl}-N-[3-(3,4-dichlorophenyl)-2,2-difluoro-3-hydroxypropyl]-2-fluoro-6-methoxybenzamide], for which the IC50 in assay [1] (setting [4]) came to 3.8 nM; in assay [2] (setting [6]), 4.3 nM; in assay [3], 8.8 µM.
